Data published in patent US10617118B2, “Low foam surfactant composition and methods of making the same” (Momentive Performance Materials Inc., priority 2015, dated 2020).

How the values were obtained:
[1] = Spreading: spread diameter of 10 μL drop on polystyrene Petri-dish; format: physicochemical; details: Table 11, after 30 seconds
Experimental: Spreading was determined using between 0.1% and 0.4% (actives) surfactant. Solutions were prepared in Milli-Pore water (deionized) where a 10 μL drop was placed on a polystyrene surface (Petri-dish) and the spread diameter, in mm is determined after 30 seconds.

[2] = tested on: Velvetleaf (Abutilion theophrasti); assay: Effect of adjuvant on glyphosate-IPA efficacy on velvetleaf (spray application); format: in vivo; details: 1.0 wt % Gly-IPA, adjuvant 0.1 wt %, 100 L/ha, simulated rain 2 hours after treatment, visual scale of 0-100%
Experimental: Velvetleaf plants were grown from seed indoor, under full sunlight intensity lamps, in individual pots, and then thinned to one plant per pot. Plants were fertilized as necessary (NPK 20-20-20). Glyphosate spray applications were applied when the plants reached the 3-4 true leaf stage.
Velvetleaf was treated with 1.0 wt % Gly-IPA, with and without adjuvant, at a spray volume equivalent to 100 L/ha. When adjuvant was used, it was included in the spray at 0.1 wt %. Applications were made using a track sprayer with a TeeJet 8002 nozzle. Simulated rain (2.5 cm) was applied 2 hours after treatment. Glyphosate efficacy was determined 7 and 14 days after treatment (DAT). using a visual scale of 0-100%, where 0 indicates no effect and 100 indicates total weed control.

Compound | Spread Diameter (mm) 0.2 Wt % [1] | Glyphosate-IPA efficacy on velvetleaf, 7 DAT ([2]; 7 DAT) | Glyphosate-IPA efficacy on velvetleaf, 14 DAT ([2]; 14 DAT)
Triton X-100 | 7 mm |  | 
CC(C)N.O=C(O)CNCP(=O)(O)O [None, glyphosate-isopropylamine] |  | 33% | 37%
